One may read the IC50 as the concentration at which inhibition is half-maximal.

These results are taken from patent US6573293B2, “Pyrrole substituted 2-indolinone protein kinase inhibitors” (Sugen, Inc., priority 2000, dated 2003).

One experiment has as its target T1, GST-Flk1 (Mus musculus, UniProt P35918).
T1 construct: GST-Flk1cd purified from sf9 recombinant baculovirus transformation; host or cells: Sf9 (baculovirus)
Description: GST-FLK-1 bioassay (bio flkGST). In kind it is biochemical.

For the next experiment, the target named is T2, HER-2 kinase (Homo sapiens, UniProt P04626).
T2 construct: Use EGFr/HER-2 chimera/3T3-C7 cell line for this assay; It is expressed in mouse NIH 3T3 clone C7 cells; P00533 (Epidermal growth factor receptor)
T2 sequence (P04626 720-987 limits assumed): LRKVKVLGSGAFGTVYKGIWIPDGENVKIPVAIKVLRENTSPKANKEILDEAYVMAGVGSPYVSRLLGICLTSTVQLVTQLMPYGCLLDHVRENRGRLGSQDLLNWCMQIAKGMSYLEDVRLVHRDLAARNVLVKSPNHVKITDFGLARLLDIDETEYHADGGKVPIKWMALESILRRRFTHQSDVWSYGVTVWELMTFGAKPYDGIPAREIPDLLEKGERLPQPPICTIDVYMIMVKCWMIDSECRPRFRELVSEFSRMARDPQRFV
Description: Cellular HER-2 kinase assay. In kind it is cell-based. The following applies: read-out: Her2 Kinase IC50.

Experiment [1] deals with T3, EGFR (Homo sapiens, UniProt P00533).
T3 construct: A431 cell lysate (SUGEN, Inc.); host or cells: A431
T3 sequence (P00533 25-1210): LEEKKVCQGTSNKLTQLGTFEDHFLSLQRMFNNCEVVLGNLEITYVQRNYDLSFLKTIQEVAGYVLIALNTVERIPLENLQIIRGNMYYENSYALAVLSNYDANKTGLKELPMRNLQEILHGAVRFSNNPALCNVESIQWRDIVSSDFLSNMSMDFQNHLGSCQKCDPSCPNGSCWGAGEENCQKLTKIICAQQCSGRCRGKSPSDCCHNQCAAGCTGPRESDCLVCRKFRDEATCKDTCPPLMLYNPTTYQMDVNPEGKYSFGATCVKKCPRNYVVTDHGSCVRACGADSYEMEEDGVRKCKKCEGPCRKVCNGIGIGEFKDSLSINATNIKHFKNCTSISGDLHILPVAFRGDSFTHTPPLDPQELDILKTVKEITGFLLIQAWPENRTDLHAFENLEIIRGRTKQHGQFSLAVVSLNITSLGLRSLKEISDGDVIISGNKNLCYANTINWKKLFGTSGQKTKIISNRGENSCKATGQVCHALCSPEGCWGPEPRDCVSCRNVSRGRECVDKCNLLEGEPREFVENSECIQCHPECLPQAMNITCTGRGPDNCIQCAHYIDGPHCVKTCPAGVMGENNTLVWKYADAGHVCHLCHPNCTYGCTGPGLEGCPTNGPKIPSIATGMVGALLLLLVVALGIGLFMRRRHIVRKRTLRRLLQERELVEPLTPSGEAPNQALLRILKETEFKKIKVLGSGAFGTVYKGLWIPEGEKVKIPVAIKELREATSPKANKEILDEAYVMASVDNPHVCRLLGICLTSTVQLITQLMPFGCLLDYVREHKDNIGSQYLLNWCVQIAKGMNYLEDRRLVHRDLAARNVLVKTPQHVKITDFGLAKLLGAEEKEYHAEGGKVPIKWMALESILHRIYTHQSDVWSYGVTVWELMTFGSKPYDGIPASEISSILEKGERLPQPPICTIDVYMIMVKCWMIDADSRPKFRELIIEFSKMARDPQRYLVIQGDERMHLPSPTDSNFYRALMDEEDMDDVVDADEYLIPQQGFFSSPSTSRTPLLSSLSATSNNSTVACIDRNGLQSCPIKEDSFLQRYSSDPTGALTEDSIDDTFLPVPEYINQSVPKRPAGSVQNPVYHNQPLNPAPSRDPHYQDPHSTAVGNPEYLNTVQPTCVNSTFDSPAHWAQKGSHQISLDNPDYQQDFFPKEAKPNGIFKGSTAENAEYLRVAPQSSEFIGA
Kind of experiment: EGFR bioassay (bio EGF). It is filed as biochemical.

For experiment [2], the target named is T3, EGFR. Kind of experiment: cell EGF assay. It is filed as cell-based. Here is the method:
Several of the assays described herein are performed in an ELISA (Enzyme-Linked Immunosorbent Sandwich Assay) format (Voller, et al., 1980, “Enzyme-Linked Immunosorbent Assay,” Manual of Clinical Immunology, 2d ed., Rose and Friedman, Am. Soc. Of Microbiology, Washington, D.C., pp. 359-371). The general procedure is as follows: a compound is introduced to cells expressing the test kinase, either naturally or recombinantly, for a selected period of time after which, if the test kinase is a receptor, a ligand known to activate the receptor is added. The cells are lysed and the lysate is transferred to the wells of an ELISA plate previously coated with a specific antibody recognizing the substrate of the enzymatic phosphorylation reaction. Non-substrate components of the cell lysate are washed away and the amount of phosphorylation on the substrate is detected with an antibody specifically recognizing phosphotyrosine compared with control cells that were not contacted with a test compound.

A further experiment has as its target T4, PDGFR-β (Homo sapiens, UniProt P09619).
T4 construct: host or cells: NIH 3T3
Kind of experiment: PDGFR bioassay (bio PDGF). In kind it is biochemical.

T1 sequence (P35918 784-1345 limits assumed): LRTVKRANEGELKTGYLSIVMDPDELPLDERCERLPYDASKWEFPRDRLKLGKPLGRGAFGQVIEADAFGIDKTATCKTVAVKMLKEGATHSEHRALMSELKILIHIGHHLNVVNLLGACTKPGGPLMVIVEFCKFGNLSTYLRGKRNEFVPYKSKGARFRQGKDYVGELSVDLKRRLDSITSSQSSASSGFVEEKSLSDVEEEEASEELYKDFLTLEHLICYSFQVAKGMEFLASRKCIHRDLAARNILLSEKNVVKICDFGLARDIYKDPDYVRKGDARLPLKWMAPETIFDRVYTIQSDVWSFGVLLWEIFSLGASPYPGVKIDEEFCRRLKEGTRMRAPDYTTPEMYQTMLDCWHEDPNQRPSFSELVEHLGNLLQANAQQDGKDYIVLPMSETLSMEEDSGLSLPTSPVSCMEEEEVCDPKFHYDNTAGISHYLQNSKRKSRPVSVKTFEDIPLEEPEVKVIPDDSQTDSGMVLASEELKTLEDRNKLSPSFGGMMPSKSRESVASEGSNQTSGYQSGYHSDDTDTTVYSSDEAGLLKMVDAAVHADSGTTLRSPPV
T4 sequence (P09619 33-1106): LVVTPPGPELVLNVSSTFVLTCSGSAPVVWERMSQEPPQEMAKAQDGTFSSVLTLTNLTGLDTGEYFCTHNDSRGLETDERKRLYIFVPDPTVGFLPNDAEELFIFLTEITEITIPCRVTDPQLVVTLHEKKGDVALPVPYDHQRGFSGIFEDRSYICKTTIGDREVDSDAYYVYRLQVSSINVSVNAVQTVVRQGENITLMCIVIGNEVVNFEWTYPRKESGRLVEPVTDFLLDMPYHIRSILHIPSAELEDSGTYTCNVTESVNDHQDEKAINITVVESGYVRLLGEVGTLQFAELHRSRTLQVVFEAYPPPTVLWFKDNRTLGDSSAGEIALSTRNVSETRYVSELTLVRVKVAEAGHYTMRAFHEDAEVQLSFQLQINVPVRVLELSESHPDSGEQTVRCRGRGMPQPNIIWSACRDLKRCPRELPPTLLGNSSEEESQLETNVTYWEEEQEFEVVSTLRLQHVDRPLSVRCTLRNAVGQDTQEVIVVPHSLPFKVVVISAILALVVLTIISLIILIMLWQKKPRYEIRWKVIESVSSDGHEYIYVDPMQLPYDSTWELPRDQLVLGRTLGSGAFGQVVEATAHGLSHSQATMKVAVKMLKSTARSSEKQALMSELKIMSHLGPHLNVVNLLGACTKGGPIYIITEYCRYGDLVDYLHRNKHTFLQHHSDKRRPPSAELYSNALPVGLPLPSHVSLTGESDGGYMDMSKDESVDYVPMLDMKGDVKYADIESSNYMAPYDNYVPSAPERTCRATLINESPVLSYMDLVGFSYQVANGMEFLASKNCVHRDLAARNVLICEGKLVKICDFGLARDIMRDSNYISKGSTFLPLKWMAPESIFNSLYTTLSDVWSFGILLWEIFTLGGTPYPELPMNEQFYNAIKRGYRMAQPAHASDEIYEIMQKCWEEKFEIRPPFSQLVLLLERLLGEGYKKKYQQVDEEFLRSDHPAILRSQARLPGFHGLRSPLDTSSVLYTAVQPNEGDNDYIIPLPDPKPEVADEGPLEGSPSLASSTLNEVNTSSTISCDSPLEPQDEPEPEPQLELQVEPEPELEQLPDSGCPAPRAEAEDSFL
Description for GST-Flk1: This assay analyzes the tyrosine kinase activity of GST-Flk1 on poly(glu,tyr) peptides.
Preparation of poly(glu,tyr)(pEY) coated assay plates: Coat 2 ug/well of poly(glu,tyr)(pEY) in 100 ul PBS, hold at room temperature for 2 hours or at 4° C. overnight. Cover plates well to prevent evaporation.
When all reagents have dissolved, adjust the pH to 7.2 with HCl. Bring total volume to 1 L with dH2O.
PBST Buffer: to 1 L of PBS Buffer, add 1.0 ml Tween-20.
Adjust pH to 7.2 with HCl. Add 10 g BSA, stir to dissolve. Bring total volume to 1 L with dH2O. Filter to remove particulate matter.
Adjust total volume to 1 L with PBS buffer, filter to remove particulate matter.
GST-Flk1cd purified from sf9 recombinant baculovirus transformation (SUGEN, Inc.).
Add 10 N NaOH until EDTA dissolves. Adjust pH to 8.0. Adjust total volume to 100 ml with dH2O.
Anti-phosphotyrosine monoclonal antibody conjugated to horseradish peroxidase (PY99 HRP, Santa Cruz Biotech).
2,2′-Azinobis(3-ethylbenzthiazoline-6-sulfonic acid (ABTS, Moss, Cat. No. ABST).
Coat Corning 96-well ELISA plates with 2 μg of polyEY peptide in sterile PBS as described in step 3 of Materials and Reagents.
Remove unbound liquid from wells by inverting plate. Wash once with TBST. Pat the plate on a paper towel to remove excess liquid.
Add 100 μl of 1% BSA in PBS to each well. Incubate, with shaking, for 1 hr. at room temperature.
Soak wells with 50 mM HEPES (pH7.5) (150 μl/well).
Dilute test compound with dH2O/4% DMSO to 4 times the desired final assay concentration in 96-well polypropylene plates.
Add 25 μl diluted test compound to ELISA plate. In control wells, place 25 μl of dH2O/4% DMSO.
Add 25 μl 0.5M EDTA to negative control wells.
Dilute GST-Flk1 to 0.005 μg (5 ng)/well with KDB.
Add 50 μl of diluted enzyme to each well.
Incubate, with shaking, for 15 minutes at room temperature.
Wash 3×with TBST and pat plate on paper towel to remove excess liquid.
Incubate, with shaking, for 90 min. at room temperature.
Add 100 μl of room temperature ABTS solution to each well.
Stop reaction by adding 20 μl of 10% SDS to each well.

Regarding `CCN(CC)CCCNC(=O)c1[nH]c(/C=C2\C(=O)Nc3ccc(Br)cc32)c2c1CCCC2` [Example 18, 3-(5-Bromo-2-oxo-1,2-dihydroindol-3-ylidenemethyl)-4,5,6,7-tetrahydro-2H-isoindole-1-carboxylic acid (3-diethylaminopropyl)amide], the IC50 against GST-Flk1 is 2.67 µM; at HER-2 kinase, 4.99 µM; on EGFR [1], 2.57 µM; on EGFR [2], 9.23 µM.
For `COc1ccccc1-c1ccc2c(c1)NC(=O)/C2=C\c1[nH]c(C)c(C(=O)NCCN(C)C)c1-c1ccccc1` [Example 45, 5-[6-(2-Methoxy-phenyl)-2-oxo-1,2-dihydroindol-3-ylidenemethyl]-2-methyl-4-phenyl-1H-pyrrole-3-carboxylic acid (2-dimethylamino-ethyl)amide], the values for the concentration for half-maximal inhibition (IC50) against GST-Flk1 and at EGFR [2] were 1.71 µM and 30 µM, respectively.
In the case of `O=C1Nc2ccc(Br)cc2/C1=C/c1[nH]c(C(=O)NCCCN2CCCC2)c2c1CCCC2` [Example 19, 3-(5-Bromo-2-oxo-1,2-dihydroindol-3-ylidenemethyl)-4,5,6,7-tetrahydro-2H-isoindole-1-carboxylic acid (3-pyrrolidin-1-ylpropyl)amide], the IC50 on GST-Flk1 was 7.5 µM; on HER-2 kinase it was 8.37 µM; on EGFR [1], 6.86 µM; against EGFR [2], 34.2 µM.
The molecule `Cc1[nH]c(/C=C2\C(=O)Nc3cc(-c4ccccc4)ccc32)c(C)c1C(=O)NCCN(C)C` [Example 49, 2,4-Dimethyl-5-(2-oxo-6-phenyl-1,2-dihydroindol-3-ylidenemethyl)-1H-pyrrole-3-carboxylic acid (2-dimethylamino-ethyl)amide] registered an IC50 against EGFR [2] of 43.9 µM.
Regarding `Cc1cc(C(=O)NCCCN2CCCC2)[nH]c1/C=C1\C(=O)Nc2ccc(Br)cc21` [Example 6, 5-(5-Bromo-2-oxo-1,2-dihydroindol-3-ylidenemethyl)-4-methyl-1H-pyrrole-2-carboxylic acid (3-pyrrolidin-1-ylpropyl)amide], the IC50 against GST-Flk1 was 4.04 µM; on HER-2 kinase, 2.43 µM; against EGFR [1] it was 3.26 µM; against EGFR [2] it was 7.82 µM.
As for `CCN(CC)CCNC(=O)c1[nH]c(/C=C2\C(=O)Nc3cc(-c4cccnc4)ccc32)c2c1CCCC2` [Example 20, 3-(2-Oxo-6-pyridin-3-yl-1,2-dihydroindol-3-ylidenemethyl)-4,5,6,7-tetrahydro-2H-isoindole-1-carboxylic acid (2-diethylaminoethyl)amide], the IC50 on GST-Flk1 is 11.5 µM; on HER-2 kinase, 8 µM; on EGFR [1], over 100 µM; at EGFR [2] it was 41.2 µM.
Consider `CCN(CC)CCCNC(=O)c1[nH]c(/C=C2\C(=O)Nc3ccc(Br)cc32)c(C(=O)c2ccccc2)c1C` [Example 21, 4-Benzoyl-5-(5-bromo-2-oxo-1,2-dihydroindol-3-ylidenemethyl)-3-methyl-1H-pyrrole-2-carboxylic acid (3-diethylaminopropyl)amide], for which the IC50 was 7.18 µM on GST-Flk1, 27.7 µM on HER-2 kinase, over 100 µM against PDGFR-β and 40.3 µM against EGFR [1].
On the same counts, the results for `CC(=O)c1c(/C=C2\C(=O)Nc3ccc(Br)cc32)[nH]c(C(=O)NCCN2CCCC2)c1C` [Example 35, 4-Acetyl-5-(5-bromo-2-oxo-1,2-dihydroindol-3-ylidenemethyl)-3-methyl-1H-pyrrole-2-carboxylic acid (2-pyrrolidin-1-yl-ethyl)amide] are over 20 µM, 54.1 µM, over 100 µM and 80.4 µM.
On to `CCN(CC)CCCNC(=O)c1[nH]c(/C=C2\C(=O)Nc3ccccc32)cc1C` [Example 12, 3-Methyl-5-(2-oxo-1,2-dihydroindol-3-ylidenemethyl)-1H-pyrrole-2-carboxylic acid (3-diethylaminopropyl)amide], for which the IC50 was over 20 µM against GST-Flk1, 27.7 µM at HER-2 kinase, 21.5 µM at PDGFR-β and over 100 µM against EGFR [1].
Consider `Cc1c(C(=O)NCCCN2CCCC2)[nH]c(/C=C2\C(=O)Nc3ccccc32)c1C(=O)c1ccccc1` [Example 23, 4-Benzoyl-3-methyl-5-(2-oxo-1,2-dihydroindol-3-ylidenemethyl)-1H-pyrrole-2-carboxylic acid (3-pyrrolidin-1-ylpropyl)amide], for which the IC50 on GST-Flk1 is over 20 µM; on HER-2 kinase it was 4.05 µM; against PDGFR-β, over 100 µM; against EGFR [1], 36.6 µM.
On the same counts, the results for `CCN(CC)CCCNC(=O)c1[nH]c(/C=C2\C(=O)Nc3cc(-c4ccccc4)ccc32)cc1C` [Example 14, 3-Methyl-5-(2-oxo-6-phenyl-1,2-dihydroindol-3-ylidenemethyl)-1H-pyrrole-2-carboxylic acid (3-diethylaminopropyl)amide] are 13 µM, 66 µM, 42.4 µM and over 100 µM.
As to `CC(C)c1[nH]c(/C=C2\C(=O)Nc3ccc(Br)cc32)c(-c2ccccc2)c1C(=O)NCCCN1CCN(C)CC1` [Example 40, 5-(5-Bromo-2-oxo-1,2-dihydroindol-3-ylidenemethyl)-2-isopropyl-4-phenyl-1H-pyrrole-3-carboxylic acid [3-(4-methyl-piperazin-1-yl)-propyl]amide], the IC50 on GST-Flk1 came out at 4.5 µM; at HER-2 kinase, 6.27 µM; on PDGFR-β it was 7.9 µM; against EGFR [1], 6.52 µM.
Regarding `COc1ccc(-c2ccc3c(c2)NC(=O)/C3=C\c2[nH]c(C)c(C(=O)NCCN3CCCC3)c2C)c(OC)c1` [Example 78, 5-[6-(2,4-Dimethoxy-phenyl)-2-oxo-1,2-dihydroindol-3-ylidenemethyl]-2,4-dimethyl-1H-pyrrole-3-carboxylic acid (2-pyrrolidin-1-yl-ethyl)amide], the IC50 is 1.94 µM against GST-Flk1, 4.25 µM on HER-2 kinase, 70.6 µM on PDGFR-β and 9.33 µM against EGFR [1].
With `COc1ccc(C(C)C)cc1-c1ccc2c(c1)NC(=O)/C2=C\c1[nH]c(C)c(C(=O)NCCN2CCCC2)c1C` [Example 76, 5-[6-(5-Isopropyl-2-methoxy-phenyl)-2-oxo-1,2-dihydroindol-3-ylidenemethyl]-2,4-dimethyl-1H-pyrrole-3-carboxylic acid (2-pyrrolidin-1-yl-ethyl)amide], the IC50 amounted to 3.33 µM against GST-Flk1, 3.01 µM at HER-2 kinase, 19.2 µM at PDGFR-β and 5.11 µM against EGFR [1].
As for `CC(=O)c1c(/C=C2\C(=O)Nc3ccc(Br)cc32)[nH]c(C(=O)NCCc2ccc(O)cc2)c1C` [Example 36, 4-Acetyl-5-(5-bromo-2-oxo-1,2-dihydroindol-3-ylidenemethyl)-3-methyl-1H-pyrrole-2-carboxylic acid [2-(4-hydroxy-phenyl)-ethyl]amide], the IC50 against GST-Flk1 is over 20 µM; on HER-2 kinase, over 100 µM; against PDGFR-β, over 100 µM; against EGFR [1], over 100 µM.
Turning to `Cc1[nH]c(/C=C2\C(=O)Nc3ccc(Cl)cc32)c(C)c1C(=O)NCCN(C)C` [Example 50, 5-(5-Chloro-2-oxo-1,2-dihydroindol-3-ylidenemethyl)-2,4-dimethyl-1H-pyrrole-3-carboxylic acid (2-dimethylamino-ethyl)amide], 20.3 µM corresponded to half-maximal inhibition against EGFR [2] (IC50).
